Experiment: ABTS*+ Radical Cation Decolorization Assay
Conditions: at 50 μM, 100 μM and 1.8 mM, up to 2 hours
Protocol: Cucurbitacin B activity was monitored at 50 μM, 100 μM, and 1.8 mM. The time interval was expanded up to 2 hours in case cucurbitacin B was reacting slowly.

For `CC(=O)OC(C)(C)/C=C/C(=O)[C@](C)(O)[C@H]1[C@H](O)C[C@@]2(C)[C@@H]3CC=C4[C@H](C[C@H](O)C(=O)C4(C)C)[C@]3(C)C(=O)C[C@]12C` [B, cucurbitacin B], the ABTS activity was “No activity was observed”.
